Measurements taken from patent publication US20260256751A1, “COMBINATION OF BETA-2-ADRENERGIC RECEPTOR AGONISTS AND GLP-1 RECEPTOR AGONISTS FOR USE IN TREATING HYPERGLYCAEMIA” (ATROGI AB, priority 2023, published 2026).

Columns and labels:
[1] = tested on: differentiated L6-myotubes; experiment: cAMP production relative to isoprenaline (Biological example 2 of WO 2019/053427); assay type: cell-based; details: 0.25 h, compound at 10 μM, activity relative to isoproterenol at 10 μM
From the text: For example, the level of cAMP production induced by a given compound can be determined by reference to the amount induced by a defined concentration of that compound relative to that induced by the same concentration of a reference compound, such as isoprenaline, using techniques known to those skilled in the art (e.g. following the protocol as described in the biological examples provided in WO 2019/053427, i.e. in cells, such as differentiated L6-myotubes, having been stimulated with isoprenaline or the compound with a final concentration of 1×10^−5 M, for 15 min in stimulation buffer, such as HBSS supplemented with 1% BSA, 5 mM HEPES and 1 mM IBMX, at pH 7.4).
(§1) Compounds described in publications referenced and incorporated herein were screened in accordance with the procedures outlined in Biological example 1 and Biological example 2 of WO 2019/053427.

[2] = tested on: differentiated L6-myotubes; experiment: Glucose uptake screen (Biological example 1 of WO 2019/053427); assay type: cell-based; details: compound at 10 μM, activity relative to isoproterenol at 10 μM, read-out: Biological example 1 of WO 2019/053427 (GU)
Experimental: as §1
L6-myoblasts were grown in Dulbecco's Modified Eagle's Medium (DMEM) containing 1 g/L glucose supplemented with 10% fetal bovine serum (FBS), 2 mM L-glutamine, 50 U/mL penicillin, […] streptomycin and 10 mM HEPES. Cells were plated at 1x 10^5 cells per mL in 24-well plates. After reaching 90% confluence the cells were grown in medium containing 2% FBS for 7 days where upon cells differentiated into myotubes. The differentiated L6-myotubes were serum-starved overnight in medium containing 0.5% fatty-acid free BSA and stimulated with Compound A at a final concentration of 1×10^−5 M in the presence of the selective β2-adrenergic receptor antagonist ICI-118551. After 1 h 40 min the cells were washed with warm, glucose free medium twice and another portion of agonist was added to the glucose free medium. After another 20 min of incubation the cells were exposed to 50 nM ^3H-2-deoxyglucose for 10 min before washed in ice cold glucose free medium three times and lysed in 400 µl/well 0.2 M NaOH for 1 h at 60° C. The cell lysate was mixed with 4 ml scintillation buffer (Emulsifier Safe, Perkin Elmer) and the radioactivity was detected in a P-counter (Tri-Carb 4810TR, Perkin Elmer).

Row | Structure (SMILES) | Emax at 10 µM [1] [%] | Emax at 10 µM [2] [%]
1 | CC1(C)CCC[C@@H]([C@@H](O)c2ccccc2F)N1 [Compound 192, (S)-[(S)-6,6-dimethyl-2-piperidyl](o-fluorophenyl)methanol] | < 25 | 25 to 50
2 | O[C@@H](CNC[C@H]1CC[C@@H](O)CC1)c1cncc(F)c1 [Compound 269, (R)-1-(5-fluoro-3-pyridyl)-2-({[(1s,4S)-4-hydroxycyclohexyl]meth-yl}amno)-1-ethanol] | < 25 | 25 to 50
3 | CC(=O)N[C@H]1CC[C@H](CC(C)(C)NC[C@H](O)c2cccc(F)c2)CC1 [Compound 383, N-[(1R,4r)-4-{2-[(R)-2-(m-fluorophenyl)-2-hydroxyethylamino]-2-methylpropyl}cyclohexyl]acetamide] | 25 to 50 | > 75
4 | CC(C)(C[C@H]1CC[C@H](NS(C)(=O)=O)CC1)NC[C@H](O)c1cccc(F)c1 [Compound 382, (R)-2-{1,1-dimethyl-2-[(1r,4R)-4-(mesylamino)cyclohexyl]ethylamino}-1-(m-fluorophenyl)-1-ethanol] | 25 to 50 | > 75
5 | CCCCNC[C@H](O)c1ccc(O)cc1 [Compound 9, (R)-2-(butylamino)-1-(p-hydroxyphenyl)-1-ethanol] | < 25 | > 75
6 | CC12CC(C1)[C@@H]([C@H](O)c1cccc(Cl)c1)N2 [Compound 209, (R)-{(S)-1-methyl-2-azabicyclo[2.1.1]hex-3-yl}(m-chlorophenyl)methanol] | < 25 | 25 to 50
7 | CCCC(C)NCC(O)c1cc(Cl)c(N)c(Cl)c1 (stereo not shown) [Compound 22, 1-(4-amino-3,5-dichlorophenyl)-2-(1-methylbutylamino)-1-ethanol] | 50 to 75 | > 75
8 | CC1(C)C[C@@H]([C@H](O)c2cccc(Cl)c2)N1 [Compound 232, (R)-[(S)-4,4-dimethyl-2-azetidinyl](m-chlorophenyl)methanol] | < 25 | 25 to 50
9 | C[C@H]1CC[C@@H]([C@@H](O)c2cccc(O)c2)N1 (racemic) [Compound 41, Racemic mixture of m-{(R)-[(2R,5R)-5-methyl-2-pyrrolidinyl]hydroxymeth-yl}phenol and m-{(S)-[(2S,5S)-5-methyl-2-pyrrolidinyl]hydroxymeth-yl}phenol] | < 25 | > 75
10 | O[C@@H](CNC[C@H]1CC[C@@H](OCc2ccccc2)CC1)c1cncc(F)c1 [Compound 263, (R)-1-(5-fluoro-3-pyridyl)-2-({[(1s,4S)-4-(benzyloxy)cyclohexyl]methyl}amino)-1-ethanol] | < 25 | > 75
11 | Oc1ccc(C(O)CNCCCC2CCCCC2)cc1 (stereo not shown) [Compound 21, 2-(3-cyclohexylpropylamino)-1-(p-hydroxyphenyl)-1-ethanol] | < 25 | > 75
12 | CC(C)(C[C@H]1CC[C@@H](NC(=O)C2CCC2)CC1)NC[C@H](O)c1cccc(F)c1 [Compound 448, N-[(1S,4s)-4-{2-[(R)-2-(m-fluorophenyl)-2-hydroxyethylamino]-2-methylpropyl}cyclohexyl]cyclobutanecarboxamide] | < 25 | 50 to 75
13 | O[C@@H](c1cccc(F)c1)[C@H]1CC[C@@H](Cc2ccc(Cl)cc2)N1 [Compound 391, (S)-{(2R,5S)-5-[(p-chlorophenyl)methyl]-2-pyrrolidinyl}(m-fluorophenyl)methanol] | < 25 | 50 to 75
14 | CN([C@H]1CC[C@@H](CC(C)(C)NC[C@H](O)c2cncc(F)c2)CC1)S(C)(=O)=O [Compound 520, (R)-2-{1,1-dimethyl-2-[(1s,4S)-4-(N-mesyl-N-methylamino)cyclohexyl]ethylamino}-1-(5-fluoro-3-pyridyl)-1-ethanol] | < 25 | 50 to 75
